The record followed here is article PMC7156458, “Synthetic biology based construction of biological activity-related library of fungal decalin-containing diterpenoid pyrones” (Nature Communications, 2020).

Assay [1] has as its system hepatitis B virus (HBV), measles virus (MV), Epstein-Barr virus (EBV), herpes simplex virus (HSV). In words: preliminary anti-viral screening (other viruses). Type of assay: cell-based. From the text: We examined the inhibitory activities of DDPs against various species of bacteria (both gram-negative and gram-positive bacteria), fungi and viruses. […] In contrast, preliminary screening of the DDPs for anti-viral agents with hepatitis B virus (HBV), measles virus (MV), Epstein-Barr virus (EBV), herpes simplex virus (HSV) and human immunodeficiency virus-1 (HIV-1) indicated their selective inhibition of HIV.

In assay [2] the test system is ACHN. In words: cells. Further details: species or system JFCR39 human cancer cell lines; JFCR39 panel growth inhibition, sulforhodamine B total protein after 48 h. As to conditions: 48 h; for GI50: Homo sapiens, ACHN. On the procedure:
(§1) Supplementary Note 24. Antiproliferative effects across the panel of JFCR39 cancer cell lines A panel of 39 human cancer cell lines, termed JFCR39, were previously described13-16. Cells were grown in RPMI-1640 (FUJIFILM Wako Pure Chemical Corporation, Tokyo, Japan) supplemented with 1 µg mL-1 kanamycin and 5% (v/v) fetal bovine serum (Nichirei Biosciences Inc, Tokyo, Japan) and incubated at 37°C in a humidified atmosphere supplemented with 5% CO2. Drug efficacy was assessed as changes in total cellular protein after 48 hours of drug treatment using a sulforhodamine B assay. Assays were done in duplicate and the GI50 was calculated as described previously13,16. The antitumor profile across the JFCR39 panel, or fingerprints were then compared to reference database containing ~2000 compounds by COMPARE algorithm16,17. Initially, we evaluated new DDP analogues for their antiproliferative activities across the panel of 39 human cancer cell lines, JFCR39[50],[51].

Assay [3] relates to BSY-1. The assay can be described thus: cells. The settings on record: for GI50: BSY-1, 48 h. The arrangement: species or system JFCR39 human cancer cell lines; JFCR39 panel growth inhibition, sulforhodamine B total protein after 48 h. Here is the method: as §1
Assay [4] has as its system DU-145. The assay can be described thus: cells. The arrangement: species or system JFCR39 human cancer cell lines; JFCR39 panel growth inhibition, sulforhodamine B total protein after 48 h. As to conditions: Homo sapiens, DU-145, 48 h. On the procedure: as §1
For assay [5], the system named is HBC-4. In words: cells. The arrangement: species or system JFCR39 human cancer cell lines; JFCR39 panel growth inhibition, sulforhodamine B total protein after 48 h. As to conditions: HBC4, 48 h. Here is the method:
as §1

In assay [6] the test system is HCC2998. In words: cells. As to conditions: Homo sapiens, HCC 2998, 48 h. Further details: species or system JFCR39 human cancer cell lines; JFCR39 panel growth inhibition, sulforhodamine B total protein after 48 h. Here is the method: as §1
The subject of assay [7] is HCT-116. In words: cells. Further details: species or system JFCR39 human cancer cell lines; JFCR39 panel growth inhibition, sulforhodamine B total protein after 48 h. As to conditions: Homo sapiens, HCT-116, 48 h. Here is the method:
as §1

The test system of assay [8] is HT-29. In words: cells. Further details: species or system JFCR39 human cancer cell lines; JFCR39 panel growth inhibition, sulforhodamine B total protein after 48 h. The settings on record: Homo sapiens, HT-29, 48 h. Here is the method: as §1
Assay [9] has as its system MCF-7. The assay can be described thus: cells. The arrangement: species or system JFCR39 human cancer cell lines; JFCR39 panel growth inhibition, sulforhodamine B total protein after 48 h. The settings on record: Homo sapiens, MCF7, 48 h. Here is the method:
as §1

Assay [10] deals with MKN-A. In words: cells. Further details: species or system JFCR39 human cancer cell lines; JFCR39 panel growth inhibition, sulforhodamine B total protein after 48 h. The settings on record: 48 h. On the procedure:
as §1

For assay [11], the system named is MKN-B. The assay can be described thus: cells. The arrangement: species or system JFCR39 human cancer cell lines; JFCR39 panel growth inhibition, sulforhodamine B total protein after 48 h. As to conditions: 48 h. Here is the method:
as §1

Assay [12] has as its system MKN74. The assay can be described thus: cells. Further details: species or system JFCR39 human cancer cell lines; JFCR39 panel growth inhibition, sulforhodamine B total protein after 48 h. As to conditions: for GI50: Homo sapiens, MKN-74, 48 h. On the procedure: as §1
Assay [13] deals with NCI-H522. The assay can be described thus: cells. Further details: species or system JFCR39 human cancer cell lines; JFCR39 panel growth inhibition, sulforhodamine B total protein after 48 h. The settings on record: Homo sapiens, NCI-H522, 48 h. Here is the method: as §1
Assay [14] has as its system OVCAR-3. In words: cells. The arrangement: species or system JFCR39 human cancer cell lines; JFCR39 panel growth inhibition, sulforhodamine B total protein after 48 h. As to conditions: Homo sapiens, OVCAR-3, 48 h. Here is the method:
as §1

Assay [15] concerns OVCAR-5. The assay can be described thus: cells. The settings on record: Homo sapiens, OVCAR-5, 48 h. Further details: species or system JFCR39 human cancer cell lines; JFCR39 panel growth inhibition, sulforhodamine B total protein after 48 h. Here is the method: as §1
In assay [16] the test system is OVCAR-8. In words: cells. The settings on record: Homo sapiens, OVCAR-8, 48 h. The arrangement: species or system JFCR39 human cancer cell lines; JFCR39 panel growth inhibition, sulforhodamine B total protein after 48 h. Here is the method:
as §1

Assay [17] concerns SNB-75. In words: cells. The arrangement: species or system JFCR39 human cancer cell lines; JFCR39 panel growth inhibition, sulforhodamine B total protein after 48 h. The settings on record: Homo sapiens, SNB-75, 48 h. On the procedure: as §1
Assay [18] has as its system St-4. The assay can be described thus: cells. Further details: species or system JFCR39 human cancer cell lines; JFCR39 panel growth inhibition, sulforhodamine B total protein after 48 h. The settings on record: Homo sapiens, St-4, 48 h. Here is the method: as §1
The subject of assay [19] is NCI-H23. The assay can be described thus: cells. The settings on record: Homo sapiens, NCI-H23, 48 h. Further details: species or system JFCR39 human cancer cell lines; JFCR39 panel growth inhibition, sulforhodamine B total protein after 48 h. On the procedure: as §1
For assay [20], the system named is PC-3. In words: cells. Further details: species or system JFCR39 human cancer cell lines; JFCR39 panel growth inhibition, sulforhodamine B total protein after 48 h. As to conditions: Homo sapiens, PC-3, 48 h. Here is the method: as §1
Assay [21] deals with SF-295. In words: cells. Further details: species or system JFCR39 human cancer cell lines; JFCR39 panel growth inhibition, sulforhodamine B total protein after 48 h. The settings on record: Homo sapiens, SF-295, 48 h. Here is the method:
as §1

Where [22] appears, read: 48 h, inhibitor, Log GI50, 48 h.

In the case of `C=C1CC[C@H]2[C@]3(C)C[C@@H](C=C(C)C)O[C@H]3CC[C@]2(C)[C@@H]1Cc1c(O)c(C)c(C)oc1=O` [Compound 5, subglutinol A], in assay [1], the “effect on other viruses” value was “without affecting other viruses”.
Still for that read-out and setting: to `C=C1CC[C@@H]2[C@](C)(CC[C@H]3O[C@H](C=C(C)C)C[C@@]23C)[C@@H]1Cc1c(O)c(C)c(C)oc1=O` [Compound 10, higginsianin A] belongs “without affecting other viruses”.
As to `C=C1CCC2C(C)(CCC=C(C)C)C(O)CCC2(C)C1Cc1c(OC)oc(C)c(C)c1=O` (stereo not shown) [Compound 11], in assay [1], the “effect on other viruses” value is “without affecting other viruses”. Also, the GI50 (commonly the concentration giving 50% growth inhibition) in assay [2] was 11 µM; in assay [3] it was 11.5 µM; in assay [4], 16.5 µM; in assay [5], 35.8 µM; in assay [6], 36.7 µM; in assay [7], 736 nM. Further, the 50% growth inhibitory concentration (GI50) was 13.6 µM in assay [8]; 1880 nM in [9]; 308 nM in assay [10]; 3700 nM in [11]; 4.76 µM in assay [12]; 1950 nM in assay [13]. Also, the concentration for 50% growth inhibition (GI50) is 3.61 µM in [14]; 42.4 µM in assay [15]; 3.61 µM in [16]; 27.8 µM in [17]; 24.9 µM in assay [18].
For the compound `C=C1CCC2C(C)(CCC=C(C)C)C(O)CCC2(C)C1Cc1c(OC)oc(CO)c(C)c1=O` (stereo not shown) [Compound 12], the “effect on other viruses” value in assay [1] is reported as “without affecting other viruses”. Moreover, the “Log GI50” value in [2] (inhibitor, Log GI50, 48 h) is on record as -4.976 M; in [3] (setting [22]), -5.304 M; in assay [10] (inhibitor, Log GI50, 48 h) it was -6.771 M; in assay [11] (inhibitor, Log GI50, 48 h), -5.948 M; in [12] (setting [22]) it was -5.381 M. Moreover, the concentration for 50% growth inhibition (GI50) in [4] is 11.8 µM; in assay [5], 13.8 µM; in assay [6] it was 15.7 µM; in assay [7], 2630 nM; in assay [8], 12.6 µM; in [19] it was 1950 nM. The concentration for 50% growth inhibition (GI50) is 1460 nM in [13]; 4.69 µM in assay [14]; 19.5 µM in [15]; 5.64 µM in assay [16]; 4.92 µM in assay [20]; 18.4 µM in [17]. The compound further had a GI50 in [18] of 14.1 µM.
Turning to `C=C1CC[C@H]2[C@]3(C)C[C@@H](C=C(C)C)O[C@H]3CC[C@]2(C)[C@@H]1Cc1c(OC)oc(CO)c(C)c1=O` [Compound 17], in [1], the “effect on other viruses” value is given as “without affecting other viruses”. For the same compound, the concentration for 50% growth inhibition (GI50) in assay [2] is 10.8 µM; in [3], 12.8 µM; in assay [4] it was 13.2 µM; in [5] it was 16.6 µM; in [6], 14 µM; in [7], 953 nM. Moreover, the 50% growth inhibitory concentration (GI50) in [8] is 14.3 µM; in assay [10], 408 nM; in [11] it was 10000 nM; in [12], 13 µM; in assay [19] it was 10800 nM; in [13] it was 10500 nM. Also, the 50% growth inhibitory concentration (GI50) in assay [14] was 10.5 µM; in assay [15], 15.5 µM; in assay [16] it was 10.8 µM; in assay [20], 11.1 µM; in assay [21], 10.7 µM; in [17] it was 16.9 µM. The compound also showed a concentration for 50% growth inhibition (GI50) in [18] of 15.2 µM.
Turning to `C=C1CC[C@H]2[C@]3(C)C[C@H](C=C(C)C)O[C@H]3CC[C@]2(C)[C@@H]1Cc1c(OC)oc(CO)c(C)c1=O` [Compound 18], in assay [1], the “effect on other viruses” value is given as “without affecting other viruses”.
Consider `C=C1CC[C@@H]2[C@](C)(CC[C@H]3O[C@H](C=C(C)C)C[C@@]23C)[C@@H]1Cc1c(OC)oc(CO)c(C)c1=O` [Compound 20], for which the “effect on other viruses” value in assay [1] is given as “without affecting other viruses”. Moreover, the GI50 in assay [2] is 11.1 µM; in [3], 12.2 µM; in assay [4], 12.7 µM; in assay [5], 15.6 µM; in assay [6], 15.9 µM; in [7] it was 10400 nM. The GI50 in assay [8] was 14.6 µM; in assay [10], 98.6 nM; in [11], 1060 nM; in [12], 12.9 µM; in [14], 3.81 µM; in [15], 16.4 µM. The GI50 is 12.3 µM in [16]; 11.4 µM in assay [20]; 11.2 µM in assay [21]; 16.4 µM in assay [17]; 14.3 µM in assay [18].
Consider `C=C1CC[C@@H]2[C@](C)(CC[C@H]3O[C@H](C=C(C)C)C[C@@]23C)[C@@H]1Cc1c(OC)oc(C)c(C)c1=O` [Compound 22, O-methylated higginsianin A], for which the GI50 was 2.33 µM in assay [2]; 11.9 µM in [5]; 8.85 µM in assay [6]; 1780 nM in assay [7]; 7.66 µM in [8]; 1500 nM in [9]. Also, the GI50 in [10] is 211 nM; in assay [11], 540 nM; in assay [12], 3.33 µM; in [19], 729 nM; in [13] it was 478 nM; in [14], 2.34 µM. In addition, the concentration for 50% growth inhibition (GI50) in assay [15] is 13.4 µM; in [16], 4.78 µM; in [21], 2.45 µM; in assay [17], 10 µM; in assay [18], 11 µM.
`C=C1CCC2C3(C)CC(C=C(C)C)OC3CCC2(C)C1Cc1c(OC)oc(C)c(C)c1=O` (stereo not shown) [Compound 23]: the “effect on other viruses” value in [1] is “without affecting other viruses”.
The same measure, in the same setting: the entry for `C=C1CC[C@H]2[C@]3(C)C[C@H](C=C(C)C)O[C@H]3CC[C@]2(C)[C@@H]1Cc1c(OC)oc(C)c(C)c1=O` [Compound 24] is “without affecting other viruses”.
